The values that follow come from patent US20120183482A1, “MELANIN PRODUCTION INHIBITOR” (FUJIFILM CORPORATION, priority 2009, published 2012).

Values after ≈ are worked out from the molar mass of the structure shown.

The test system of series [1] is B16 melanoma cells. As to the kind of experiment: Melanin production inhibition test. In kind it is cell-based. Particulars: for Melanin Production: no sample = 100; for IC50: Mus musculus, B16, read out from the melanin production inhibition curves (FIG. 1), read-out: IC50 values at which 50% of the melanin production was inhibited. As to the method:
B16 melanoma cells were seeded on 10% (v/v) FBS-containing MEM medium (minimum basal medium containing fetal bovine serum) so as to be 2.5×10^5 cells/well in a 12-well culture plate and were cultivated for 24 hours in a usual manner.
(§1) After the pre-cultivation, the medium was replaced with a test medium and cultivation was carried out for 72 hours. As the test medium, there was employed a medium obtained by adding 0.25 mmol/L of theophylline, 0.5% (v/v) of dimethyl sulfoxide to the medium for the pre-cultivation, and each of various evaluation samples so as to be a concentration described in Table.
The Salacia crude extract was prepared by the following method. After 0.5 kg of root and trunk parts of Salacia reticulate, Salacia oblonga, and Salacia chinensis were pulverized, 10 L of water was added thereto and extraction was performed under conditions of 100° C. and 1 hour. After the obtained extract solution was filtrated through a 100-mesh filter, spray drying was performed and a product obtained as 50 g of an extract powder was used.
As ellagic acid, ellagic acid dihydrate manufactured by Wako Pure Chemical Industries, Ltd. was used.
As arbutin, β-arbutin manufactured by Sigma-Aldrich was used.
After the cultivation was finished, the cells were washed with PBS (phosphate buffer) and then a 1 mol/L aqueous sodium hydroxide solution containing 10% (v/v) dimethyl sulfoxide was added thereto. After the whole was subjected to an ultrasonic treatment at 50° C. for 30 minutes, absorbance of the solution at a wavelength of 400 nm was measured and was taken as a melanin amount in a well. Moreover, at the same time, measurement of the number of living cells by MTT assay was carried out in another culture plate (test conditions are in accordance to Example 2). Finally, the melanin amount in the well was normalized by the measurement value by the MTT assay and the resulting amount was taken as a melanin amount per unit cell.
A melanin production inhibition rate (%) in the case where the evaluation sample was added was determined, the melanin amount in the case where no evaluation sample was added being regarded as 100.

The subject of series [2] is B16 melanoma cells. As to the kind of experiment: Cytotoxicity test (MTT assay). The following applies: for Cell survival rate: 72 hours, no sample = 100. In kind it is cell-based. How it is done: B16 melanoma cells were seeded on 10% (v/v) FBS-containing MEM medium so as to be 1.25×10^5 cells/well in a 24-well culture plate and were cultivated for 24 hours in a usual manner.
as §1
After the cultivation was finished, the cells were washed with PBS and then a 0.5 mg/mL MTT solution was added in an amount of 500 μL/well and the temperature was kept for 2 hours in an incubator. Thereafter, 1.5 mL of dimethyl sulfoxide was added thereto and then absorbance at a wavelength of 570 nm was measured and taken as an index of the number of living cells.
A cell revival rate (%) in the case where the evaluation sample was added was determined, the number of living cells in the case where no evaluation sample was added being regarded as 100.

Setting [3] is: high concentration region, data are not shown.

Broadly, the IC50 is the concentration at which inhibition is half-maximal. With `O=c1oc2c(O)c(O)cc3c(=O)oc4c(O)c(O)cc1c4c23` [Ellagic acid, ellagic acid dihydrate], the “Melanin Production” value in the series with B16 melanoma cells [1] (0.67646 μg/mL, 72 hours) turned out to be 79%; in the series with B16 melanoma cells [1] (2.02938 μg/mL, 72 hours) it was 33%. In the series on B16 melanoma cells [1], the IC50 came to 1.5 µg/mL. Further, the Cell survival rate is reported as 117.4% in the series with B16 melanoma cells [2] (0.67646 μg/mL), 107.3% in the series with B16 melanoma cells [2] (2.02938 μg/mL), 48.1% with B16 melanoma cells [2] (6.7646 μg/mL) and 25.8% in the series on B16 melanoma cells [2] (20.2938 μg/mL). Besides, in the series on B16 melanoma cells [2] (high concentration region (up to 20.3 μg/mL)), the “cytotoxicity (in words)” value is “exhibited cytotoxicity”.
As to `COc1ccc(C(=O)[O-])c(O)c1.[K+]` [Potassium 4-methoxysalicylate], the “Melanin Production” value came to 46.0% in the series on B16 melanoma cells [1] (123.69 μg/mL, 72 hours) and 20.1% in the series with B16 melanoma cells [1] (412.3 μg/mL, 72 hours). In the series on B16 melanoma cells [1], the IC50 was found to be 80 µg/mL. In the series with B16 melanoma cells [2] (setting [3]), the “cytotoxicity (in words)” value is given as “cytotoxicity was observed”.
For the compound `O=S(=O)([O-])O[C@@H](CO)[C@H](O)C[S@+]1C[C@@H](O)[C@H](O)[C@H]1CO` [Salacinol, salacinol], the “Melanin Production” value with B16 melanoma cells [1] (1.998 μg/mL, 72 hours, melanin amount per unit cell) was 71%; with B16 melanoma cells [1] (6.66 μg/mL, 72 hours), 50%; in the series on B16 melanoma cells [1] (19.98 μg/mL, 72 hours), 34%. Moreover, in the series with B16 melanoma cells [1] (B16 melanoma cells, 72 hours), the “melanin production inhibitory effect (in words)” value is “concentration-dependent and remarkable melanin production inhibitory effect”. In addition, the IC50 with B16 melanoma cells [1] is 6.3 µg/mL (≈ 18.8 µM). In addition, the Cell survival rate is recorded as 89.6% in the series with B16 melanoma cells [2] (1.998 μg/mL), 85.0% in the series with B16 melanoma cells [2] (6.66 μg/mL), 87.9% in the series on B16 melanoma cells [2] (19.98 μg/mL) and 78.8% in the series on B16 melanoma cells [2] (66.6 μg/mL). In the series with B16 melanoma cells [2] (concentration region up to 66.6 μg/mL), the “cytotoxicity (in words)” value is “almost no cytotoxicity”.
For `O=c1cc(CO)occ1O` [Kojic acid], the “Melanin Production” value was 83.6% with B16 melanoma cells [1] (8.5266 μg/mL, 72 hours); 77.2% with B16 melanoma cells [1] (28.422 μg/mL, 72 hours); 72.8% in the series on B16 melanoma cells [1] (85.266 μg/mL, 72 hours); 43.4% in the series with B16 melanoma cells [1] (284.22 μg/mL, 72 hours). For the same compound, the concentration for half-maximal inhibition (IC50) in the series on B16 melanoma cells [1] turned out to be 240 µg/mL (≈ 1690 µM). In addition, the “cytotoxicity (in words)” value in the series with B16 melanoma cells [2] (setting [3]) was “cytotoxicity was observed”.
With `OC[C@H]1O[C@@H](Oc2ccc(O)cc2)[C@H](O)[C@@H](O)[C@@H]1O` [Arbutin, β-arbutin], the “Melanin Production” value with B16 melanoma cells [1] (16.338 μg/mL, 72 hours) is 69.5%; in the series with B16 melanoma cells [1] (54.46 μg/mL, 72 hours) it was 49.9%; with B16 melanoma cells [1] (163.38 μg/mL, 72 hours), 28.4%; with B16 melanoma cells [1] (544.6 μg/mL, 72 hours) it was 20.7%. Also, the IC50 in the series with B16 melanoma cells [1] amounted to 54 µg/mL (≈ 198 µM). In addition, the “cytotoxicity (in words)” value in the series on B16 melanoma cells [2] (setting [3]) is on record as “cytotoxicity was observed”.
